In patent US20220249525A1, “Fatty Acid Compounds for Prevention and Treatment of Neurodegenerative Disorders” (T OMEGA AS, priority 2019, published 2022):

Key:
HuH-7 cells [1] = experiment: WST-1 cell viability assay in HuH-7 cells; format: cell-based; conditions: 2 days, 62.5 μM, complexed with FBS
Description: (§1) The fatty acids (FAs) TTA, tr-TTA, N-TTA, tr-N-TTA and (PA) were complexed with FBS following the same procedure, differing only in final stock concentration, due to variation in solubility. Approximately 0.07 g of FA was weighed in a 10 ml sterile serum tube (BD Vacutainer®, catalog no. 368430) and dissolved in sterile filtrated 0.1 M sodium hydroxide (NaOH) of a volume giving 25 mM FA, controls without FA were made, containing only NaOH and FBS. A syringe (Sterican®, catalog no. 4657577) was pierced through the rubber cap of the serum tube, and the tube was placed in an 80° C. water bath until the FAs were dissolved. Each FA-solution was then diluted in inactivated FBS to stock concentration 1 mM (N-TTA, tr-N-TTA), and 2 mM by adding the FA to a volume of 100% FBS after heating the FBS to 45° C. in a water bath. The transfer of FA to FBS had to be executed controlled and swiftly to avoid the formation of precipitates. If any precipitates in the solution were visible, the FA and a new volume of FBS were reheated, and the procedure performed again. Following successful complexation, the stock solutions were stored at −20° C. in 1 ml aliquots (CryoPure tube, Sarstedt AG & Co, Nümbrecht, Germany).
(§2) The WST-1 cell proliferation assay was performed using the kit from Roche (table 4.2.) and its accompanying procedure (version 16, February 2011) (134). The number of cells seeded to each well in the 96-well plates (Corning Inc., catalog no. 353072) varied depending on the treatment time and cell type (table 3.).
(§3) Cell suspension and medium were then transferred to each well in a volume of 100 μl in total. Subsequently, the plates were incubated for 24 hours to make the cells settle. The next day, 100 μl with FA complexed with FBS or diluted in DMSO was added to row A or B in the 96-well plate to give a defined concentration. The solution was then mixed with a pipette, and 100 μl of the medium with FA was transferred to the next well in the same column, mixed by pipetting up and down at least five times before 100 μl was transferred again to the next well in the column. This procedure was repeated until the second last, or last well in each column was reached, making a series of two-fold dilution of the FAs in the cell medium. Two parallels were performed for every treatment per run. After the addition of FAs, the plates were incubated for 24-96 hours depending on the length of the treatment.
(§4) Following the FA-treatment, the cells were studied under a microscope to ensure that visual observations matched the measured absorbance and cell activity in the assay. Subsequently, 10 μl WST-1 reagent was added to each well, and the plates were incubated for 3 hours. Due to high activity in the HuH-7 cell line, the WST-1 reagent was diluted 1:1 with PBS. Before the measurement of absorbance, the plates were placed on a shaker for 1 minute ensuring thoroughly mixing of the wells. The plates were then put straight into the spectrophotometer (SpectraMax Plus 384 Microplate Reader, Molecular Devices Corporation, San Jose, Calif., USA) to perform the measurements. The accompanying software was used (SoftMax Pro, Molecular Devices Corporation, San Jose, Calif., USA) to obtain the results. The absorbance of the samples was measured at 450 nm, and the reference wavelength was set to 650 nm. For each well, the measured absorption at 650 nm was subtracted from the absorption at 450 nm. The measured absorbance for the treated cells was then compared to the controls (blank) containing only cells and growth medium.

SH-SY5Y cells [2] = experiment: Gene expression (qPCR) in SH-SY5Y cells treated with fatty acids; format: cell-based
Description: (§5) Cells from both cell lines were obtained and counted as previously mentioned. After cell counting, the cells were seeded to 6-well plates (Corning Inc., catalog no. 353046) with a density dependent on total treatment time and cell line. The cells were seeded in 3-4 ml medium and placed in the incubator for approximately 24 hours for the cells to settle. Following the 24 hours, the FAs were thawed in room temperature, the cell medium was aspirated off, and a new, exact volume was added to each well, depending on the final concentration of FA or control. Before the addition of FAs, the FA-solutions were mixed by pipetting up and down several times. The FAs were then added with an exact volume to the wells giving a total volume of 3 ml or 4 ml depending on treatment time, yielding the target concentration of FA in well. After the addition of FA to one well, the solution was mixed by carefully rotating the 6-well plate. The same procedure was followed for all the wells, differing only in FA or control added, and the ratio of medium and FA depending on treatment dose. During cell treatment, the plates were incubated under the same conditions as previously mentioned. PBS was placed between the wells to reduce liquid-loss due to evaporation. After treatment and incubation for 24-96 hours, the procedure of RNA purification was followed.
(§6) Purification of total RNA from treated HuH-7- and SH-SY5Y cells was done following the protocol “Purification of Total RNA from Animal Cells using Spin Technology” described in the RNeasy Mini Handbook (fourth edition, June 2012) with some modifications. The RNeasy Mini Kit was used.
(§7) Frozen RNA samples were thawed on ice or used directly after the RNA purification protocols. All samples from the cell lines were diluted with nuclease-free water to 50 ng/μl, and all samples from brain tissue were diluted to 200 ng/μl prior to cDNA synthesis. UHRR and UMRR were initially at 50 ng/μ1 (table 4.3.). The reactants (table 4.6.) used in the RT-mix were thawed on ice and mixed following the protocol “High Capacity cDNA Reverse Transcription Kits” (Applied Biosystems, June 2010) (153). From the master mix containing the total volume of the mixed reactants, 10 μl was added to each sample tube placed on ice already containing 10 μl of the diluted RNA. The samples with a total volume of 20 μl were mixed by pipetting up and down several times. In addition, samples without reverse transcriptase (−RT) were made, using nuclease-free water to replace the RT volume. The tubes were placed on ice until they were loaded to the GeneAmp* PCR system 2700 (Applied Biosystems, Foster City, Calif., USA) and the program described in table 4.7. was used. After the procedure, all samples were diluted to 10 ng/μl by the addition of nuclease-free water and placed for storage at 4° C. until further use.
The mix for the samples (and standard curves) was made using TaqMan Gene Expression Master Mix (table 4.8.), probes specific for the genes in question, and nuclease-free water. −RT and NTC samples were always used in the experiments. […] The prepared samples were placed in the PCR cycler (ABI PRISM 7900HT Sequence Detection System, Applied Biosystems) for quantification, using the 9600 Emulation Thermal Cycler Protocol (table 4.9.) in the software SDS 2.3 (Applied Biosystems, Foster City, Calif., USA).
(§8) When performing the qPCR reactions, all samples were analyzed in triplicates, and the mean value was used in further analysis. […]

SH-SY5Y cells [3] = experiment: WST-1 cell viability assay in SH-SY5Y cells; format: cell-based; conditions: 4 days
Description: as §1, §2, §3
as §4, with “The accompanying software was used (SoftMax Pro, Molecular Devices Corporation, San Jose, Calif., USA) to obtain the results.” left out

HuH-7 cells [4] = experiment: Gene expression (qPCR) in HuH-7 cells treated with fatty acids; format: cell-based
Description: as §5, §6, §7
The mix for the samples (and standard curves) was made using TaqMan Gene Expression Master Mix (table 4.8.), probes specific for the genes in question, and nuclease-free water. −RT and NTC samples were always used in the experiments. The master mix for each gene was made according to table 4.8. and added to tubes together with the cDNA. The tubes were vortexed and centrifuged briefly before the samples were added to a 384-well plate (Sarstedt AG & CO, catalog no. 72.1984.202) with the use of a pipette. For every sample, three parallels of 9 μl were used. After the addition of all the samples to the plate, a plastic cover (Sarsted AG & CO, catalog no. 95.1994) was used to seal the plate before centrifuging it for 2 minutes at 700 g. The prepared samples were placed in the PCR cycler (ABI PRISM 7900HT Sequence Detection System, Applied Biosystems) for quantification, using the 9600 Emulation Thermal Cycler Protocol (table 4.9.) in the software SDS 2.3 (Applied Biosystems, Foster City, Calif., USA).
as §8

SH-SY5Y cells [5] = experiment: GC-MS analysis of TTA in cell medium and SH-SY5Y cells; format: in vitro ADME
Description: The GC-MS analysis was performed on treated SH-SY5Y cells and its medium prior and after treatment of TTA complexed with FBS. The technical work and analysis were performed by Pavol Bohov.
Total medium and cellular FA composition were analyzed by […] after preparation of FA methyl esters from total lipids by heating with a 1:1 mixture of methanol and toluene at 90° C. for 1 hour using sulfuric acid as a catalyst. Gas chromatograph Trace GC Ultra (Finnigan, USA) was equipped with a programmable temperature vaporization injector, flame-ionization detector, AS 2000 autosampler and with a fused silica capillary column coated with dimethylpolysiloxane stationary phase (J & W Scientific, USA). Hydrogen was used as a carrier gas. The column temperature was programmed from 110° C. to 310° C. with a gradient of 2.5° C./min.
The GC signal was acquired and evaluated with Chromeleon software version 6.80 (Dionex, USA). Peaks were identified by means of known FA standards and by means of mass spectra, obtained by GC-MS analysis (GCQ MS Detector, Finnigan, USA) on the same column.
The quantification of the FAs was based on the areas of the chromatographic peaks which were measured electronically. Subsequently, the areas were converted to weight units based on the known amount of the internal standard C21:0 which had been added to the sample. The response of the analytical procedure was determined with a mixture of pure standards (Sigma-Aldrich, USA; Supelco, USA; Larodan Fine Chemicals, Sweden).

[6] = 125 μM complexed with FBS, 24 hours
[7] = 25 μM dissolved in DMSO, 4 days
[8] = inside SH-SY5Y cells after 24 hours

## CCCCCCCCCCCCCCCC(=O)O [PA]
HuH-7 cells [1]
  WST-1 activity compared to untreated cells: ~150%
SH-SY5Y cells [2]; [6]
  relative gene expression of CPT-2 vs control: No change
  relative gene expression of CYCS vs control: No change
  relative gene expression of TFAM vs control: No change
  relative gene expression of UCP3 vs control: No change
SH-SY5Y cells [2]; additional treatments, 4 days, reference 18 S
  CYCS gene expression vs FBS-control: small decrease
SH-SY5Y cells [3]; 500 μM
  WST-1 activity: the same as the control
SH-SY5Y cells [3]; concentrations up to 250 μM
  WST-1 activity: stimulated activity
HuH-7 cells [4]; [7]
  relative expression of CPT-2 compared to control: 0.65
  relative expression of UCP3 compared to untreated cells: approximately 0.5
HuH-7 cells [4]; 125 μM complexed with FBS, 1 day
  increase in CPT-2 expression relative to control: 1.5 fold
HuH-7 cells [4]; 125 μM complexed with FBS, 2 days
  increase in CPT-2 expression relative to control: did not result in increased expression
HuH-7 cells [4]; 125 μM complexed with FBS, 4 days
  increase in CPT-2 expression relative to control: did not result in increased expression
HuH-7 cells [4]; 125 μM complexed with FBS, all treatment periods (1, 2, 4 days)
  increase in relative expression of UCP3: did not induce any changes

## CCCCCCCC=CCCCCCSCC(=O)O [TTA: 1n-8]
SH-SY5Y cells [5]; cell medium after 24 hours
  Medium 24 h, weight percent of total FA: (0.18%)
SH-SY5Y cells [5]; cell medium after 24 hours incubation with SH-SY5Y cells
  Medium 24 h, concentration: 0.53 µM
SH-SY5Y cells [5]; [8]
  Cells 24 h, concentration: 0.017 µM
  Cells 24 h, weight percent of total FA: (0.19%)
